Source: PubChem BioAssay (NCI)
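Protocol summary: plate cells (96-well), add compound at 5 concentrations, incubate 48 h, interpolate endpoints linearly. GI50 marks 50% less growth. TGI marks complete inhibition of growth.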

Legend:
Experiment in all cases: NCI anticancer screen, dose series, 48 h
A549 NSCLC = test system: A549 NSCLC
CCRF-CEM leukemia = test system: CCRF-CEM leukemia
COLO 205 colon = test system: COLO 205 colon
HCT-15 colon = test system: HCT-15 colon
HOP-62 NSCLC = test system: HOP-62 NSCLC
HOP-92 NSCLC = test system: HOP-92 NSCLC
IGROV1 ovarian = test system: IGROV1 ovarian
MOLT-4 leukemia = test system: MOLT-4 leukemia
NCI-H226 lung = test system: NCI-H226 lung
SF-539 CNS = test system: SF-539 CNS

Structure (SMILES)	TGI (A549 NSCLC) [µM]	TGI (CCRF-CEM leukemia) [µM]	TGI (COLO 205 colon) [µM]	TGI (HCT-15 colon) [µM]	TGI (HOP-62 NSCLC) [µM]	TGI (HOP-92 NSCLC) [µM]	TGI (IGROV1 ovarian) [µM]	TGI (MOLT-4 leukemia) [µM]	TGI (NCI-H226 lung) [µM]	TGI (SF-539 CNS) [µM]	GI50 (A549 NSCLC) [µM]	GI50 (CCRF-CEM leukemia) [µM]	GI50 (COLO 205 colon) [µM]	GI50 (HCT-15 colon) [µM]	GI50 (HOP-62 NSCLC) [µM]	GI50 (HOP-92 NSCLC) [µM]	GI50 (IGROV1 ovarian) [µM]	GI50 (MOLT-4 leukemia) [µM]	GI50 (NCI-H226 lung) [µM]	GI50 (SF-539 CNS) [µM]
NS(=O)(=O)c1ccc(NC2(C(=O)O)CCCC2)cc1	> 100	> 100	> 100	> 100	> 100	> 100	> 100	> 100	> 100	> 100	–	–	–	–	–	–	–	–	–	–
CCCCCCCC/C=C/CCCCCCCC(=O)OC[C@H]1O[C@@H](n2ccc(N)nc2=O)C(F)(F)[C@@H]1O	> 70.1	2.09	> 37.9	> 100	–	34.7	> 100	5.02	> 61.3	1.17	< 0.0174	< 0.0158	0.131	0.117	< 0.0209	0.141	19	0.0352	0.333	< 0.0183
O=C(O)C1OC(n2cc(F)c(=O)[nH]c2=O)CC1O (stereo not drawn)	> 100	> 100	> 100	> 100	> 89.2	> 51.4	> 100	> 56.2	> 100	26.2	–	–	–	–	–	–	–	–	–	–
COc1cc2c(cc1OC)C(CC(=O)NN=C(C)C)NCC2 (stereo not drawn)	> 100	> 100	> 100	> 100	> 100	> 100	> 100	> 100	> 100	> 100	–	–	–	–	–	–	–	–	–	–
CCOC(=O)c1c(C)n(Cc2ccc(Cl)cc2Cl)c2c1c(CN(C)C)c(O)c1[nH]cnc12	32.5	8.18	37.7	28.9	29.5	13.3	31.5	4.52	33.4	36.9	15.9	2.37	20.1	15.5	12.8	2.74	17.1	0.908	17.8	20.2
Cc1nc(N)sc1C(=O)/C=C\c1ccc2c(c1)OCO2	> 100	> 100	> 100	> 100	> 100	> 100	> 100	> 100	> 100	> 100	–	–	–	–	–	–	–	–	–	–
NCCCCN(CCCN)/[N+]([O-])=N\O	> 100	> 100	> 100	> 100	> 100	> 100	> 100	> 100	> 100	> 100	–	–	–	–	–	–	–	–	–	–
C1=CC2SSSC2C1 (stereo not drawn)	> 100	> 100	> 100	> 100	> 100	> 100	> 100	> 100	> 100	> 100	–	–	–	–	–	–	–	–	–	–
CN1CCN(CCCOc2ccc3nc(Nc4ccc(Cl)c(C(F)(F)F)c4)ccc3c2)CC1	28.9	22.1	24.4	13.3	29.6	18.8	30.1	24.3	57.1	33.3	14.7	6	9.79	3.66	14.9	5.46	13.2	8.2	22.2	13.8
COC1=CC(=O)c2nc(-c3cccc(C)n3)[nH]c2C1=O	39.1	> 100	67.7	> 100	35.9	43.7	47	> 100	43.8	36.7	19.1	61.8	26.5	52.5	18.7	17.4	20.5	64.7	21.7	18.8
O=C1OC(c2ccccc2)=N/C1=C\c1cccc2ccccc12	> 100	> 100	> 100	> 100	> 100	> 100	> 100	> 100	> 100	> 100	–	–	–	–	–	–	–	–	–	–
COC(=O)[C@H](C)NC(=O)NC(=O)NC(=O)CI	36.3	4.44	6.49	18	32.6	19.7	35.4	5.17	44.9	30.3	20	2.03	2.54	5.26	17.2	6.79	17.1	2.21	19.8	15.9
COC(=O)C1=CNC=C(C(=O)OC)C1C1=CC(=O)C(C)=CC1=O	42.1	–	55.1	32.6	28.2	15.6	27.5	5.9	17.2	29.6	19.6	4.3	22.9	17	14.8	4.65	14.3	2.16	5.35	14.9
CCCCC(O)(c1ccc(Cl)cc1)C(CN1CCOCC1)c1ccc(Cl)cc1 (stereo not drawn)	30.9	36.2	25.5	26.2	34.5	23.6	33	30.7	28.8	36.6	12.5	14.3	10.8	11.2	16.3	10.6	8.68	10.7	11.8	17
NP(=O)(Oc1c2occc2cc2ccc(=O)oc12)N(CCCl)CCCl (stereo not drawn)	> 100	> 100	> 100	> 100	> 100	> 100	> 100	> 100	> 100	> 100	–	–	–	–	–	–	–	–	–	–
C[N+](C)(C)CC1CCCCCCCCCCC1=O (stereo not drawn)	> 100	> 100	> 100	> 100	> 100	> 100	> 100	> 100	> 100	> 100	–	–	–	–	–	–	–	–	–	–
